Measurements taken from PubChem BioAssay AID1963868 (Molecular Pharmacology Branch, DTP, NCI, 2024).

System: KRAS PDC tumor spheroids (HUVEC+MSC), viability
Test: Anticancer human tumor 254851-301-R-J1-PDC patient-derived colon carcinoma cell line growth inhibition [KRAS2]
Settings: for IC50: curve of first compound; for viability, T/C: stronger effect = lower value
Outline: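 Combination screen of spheroid viability in tumor-cell co-cultures with endothelial (HUVEC) and mesenchymal stem cell stroma. Each agent was tested in half-log dilutions, topping at clinical Cmax or at 10 microM without a known Cmax.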

[1] = second compound 0.1 µM, first compound 0.0316 µM
[2] = second compound 0.1 µM, first compound 0.1 µM
[3] = second compound 0.316 µM, first compound 0.0316 µM
[4] = second compound 0.316 µM, first compound 0.1 µM
[5] = second compound 1 µM, first compound 0.0316 µM
[6] = second compound 1 µM, first compound 0.1 µM
[7] = second compound 3.16 µM, first compound 0.0316 µM
[8] = second compound 3.16 µM, first compound 0.1 µM
[9] = second compound 10 µM, first compound 0.0316 µM
[10] = second compound 10 µM, first compound 0.1 µM
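Note: spheroids exposed to compounds for seven days before readout.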
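Throughout, for viability, T/C: 100% = DMSO vehicle control luminescence of the spheroids.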

CCNC(=O)CC1N=C(c2ccc(Cl)cc2)c2cc(OC)ccc2-n2c(C)nnc21 (stereo not given) + COc1cc2nc(C)nc(NC(C)c3cc(N)cc(C(F)(F)F)c3)c2cc1OC1CCOC1
IC50 (second compound 0.1 µM): 3470 nM
IC50 (second compound 0.316 µM): 2530 nM
IC50 (second compound 1 µM): 1940 nM
IC50 (second compound 3.16 µM): 668 nM
IC50 (second compound 10 µM): 712 nM
viability, T/C [1]: 115%
viability, T/C [2]: 123%
viability, T/C (second compound 0.1 µM, first compound 0.316 µM): 97.6%
viability, T/C (second compound 0.1 µM, first compound 1 µM): 84.8%
viability, T/C (second compound 0.1 µM, first compound 3.16 µM): 45%
viability, T/C (second compound 0.1 µM, first compound 10 µM): 43%
viability, T/C [3]: 113%
viability, T/C [4]: 122%
viability, T/C (second compound 0.316 µM, first compound 0.316 µM): 109%
viability, T/C (second compound 0.316 µM, first compound 1 µM): 65.8%
viability, T/C (second compound 0.316 µM, first compound 3.16 µM): 45.5%
viability, T/C (second compound 0.316 µM, first compound 10 µM): 45.5%
viability, T/C [5]: 103%
viability, T/C [6]: 111%
viability, T/C (second compound 1 µM, first compound 0.316 µM): 98.6%
viability, T/C (second compound 1 µM, first compound 1 µM): 65.9%
viability, T/C (second compound 1 µM, first compound 3.16 µM): 39.2%
viability, T/C (second compound 1 µM, first compound 10 µM): 17.6%
viability, T/C [7]: 73%
viability, T/C [8]: 107%
viability, T/C (second compound 3.16 µM, first compound 0.316 µM): 76%
viability, T/C (second compound 3.16 µM, first compound 1 µM): 36.2%
viability, T/C (second compound 3.16 µM, first compound 3.16 µM): 22.4%
viability, T/C (second compound 3.16 µM, first compound 10 µM): 26.4%
viability, T/C [9]: 79.9%
viability, T/C [10]: 81.6%
viability, T/C (second compound 10 µM, first compound 0.316 µM): 74.8%
viability, T/C (second compound 10 µM, first compound 1 µM): 39.2%
viability, T/C (second compound 10 µM, first compound 3.16 µM): 22.9%
viability, T/C (second compound 10 µM, first compound 10 µM): 15.7%

Cn1ncnc1[C@H]1c2n[nH]c(=O)c3cc(F)cc(c23)N[C@@H]1c1ccc(F)cc1 + COc1cc2nc(C)nc(NC(C)c3cc(N)cc(C(F)(F)F)c3)c2cc1OC1CCOC1
IC50 (second compound 0.1 µM): > 100 nM
IC50 (second compound 0.316 µM): > 100 nM
IC50 (second compound 1 µM): > 100 nM
IC50 (second compound 3.16 µM): > 100 nM
IC50 (second compound 10 µM): > 100 nM
viability, T/C (second compound 0.1 µM, first compound 0.000316 µM): 111%
viability, T/C (second compound 0.1 µM, first compound 0.001 µM): 95.6%
viability, T/C (second compound 0.1 µM, first compound 0.00316 µM): 104%
viability, T/C (second compound 0.1 µM, first compound 0.01 µM): 100%
viability, T/C [1]: 99.6%
viability, T/C [2]: 101%
viability, T/C (second compound 0.316 µM, first compound 0.000316 µM): 95.9%
viability, T/C (second compound 0.316 µM, first compound 0.001 µM): 100%
viability, T/C (second compound 0.316 µM, first compound 0.00316 µM): 93.5%
viability, T/C (second compound 0.316 µM, first compound 0.01 µM): 80.9%
viability, T/C [3]: 84.8%
viability, T/C [4]: 89.5%
viability, T/C (second compound 1 µM, first compound 0.000316 µM): 86.9%
viability, T/C (second compound 1 µM, first compound 0.001 µM): 81.6%
viability, T/C (second compound 1 µM, first compound 0.00316 µM): 83.1%
viability, T/C (second compound 1 µM, first compound 0.01 µM): 86.4%
viability, T/C [5]: 85.9%
viability, T/C [6]: 81.3%
viability, T/C (second compound 3.16 µM, first compound 0.000316 µM): 86.5%
viability, T/C (second compound 3.16 µM, first compound 0.001 µM): 83.8%
viability, T/C (second compound 3.16 µM, first compound 0.00316 µM): 95.9%
viability, T/C (second compound 3.16 µM, first compound 0.01 µM): 86%
viability, T/C [7]: 87.2%
viability, T/C [8]: 80.9%
viability, T/C (second compound 10 µM, first compound 0.000316 µM): 77.9%
viability, T/C (second compound 10 µM, first compound 0.001 µM): 83%
viability, T/C (second compound 10 µM, first compound 0.00316 µM): 80.8%
viability, T/C (second compound 10 µM, first compound 0.01 µM): 78.1%
viability, T/C [9]: 69.2%
viability, T/C [10]: 74.7%
